From the NIST ThermoML archive (doi:10.1016/j.jct.2017.04.007)

Settings: Liquid; for speed of sound: Frequency=3 MHz, Pulse-echo method; for mass density: Vibrating tube method

CCOC(F)(C(F)(F)C(F)(F)C(F)(F)F)C(F)(C(F)(F)F)C(F)(F)F (configuration not stated) [2-trifluoromethyl-3-ethoxydodecafluorohexane]
Settings	mass density [kg/m3]	speed of sound [m/s]
293.15 K, 100 kPa	1630.2	673.7
293.15 K, 10000 kPa	1654	–
293.15 K, 20000 kPa	1674.8	781.1
293.15 K, 30000 kPa	1693.3	–
293.15 K, 40000 kPa	1709.8	865.8
293.15 K, 50000 kPa	1724.9	–
293.15 K, 60000 kPa	1738.8	938.1
293.15 K, 70000 kPa	1751.7	–
293.15 K, 80000 kPa	1763.9	1001.8
293.15 K, 90000 kPa	1775.4	–
293.15 K, 100000 kPa	1786.2	1058
293.15 K, 110000 kPa	1796.5	–
293.15 K, 120000 kPa	1806.3	–
293.15 K, 130000 kPa	1815.8	–
293.15 K, 140000 kPa	1824.9	–
303.15 K, 100 kPa	1609.7	643.7
303.15 K, 10000 kPa	1635.5	–
303.15 K, 20000 kPa	1657.8	755.3
303.15 K, 30000 kPa	1677.3	–
303.15 K, 40000 kPa	1694.6	842.8
303.15 K, 50000 kPa	1710.4	–
303.15 K, 60000 kPa	1724.9	916.9
303.15 K, 70000 kPa	1738.4	–
303.15 K, 80000 kPa	1750.9	981.3
303.15 K, 90000 kPa	1762.8	–
303.15 K, 100000 kPa	1773.9	1038.5
303.15 K, 110000 kPa	1784.5	–
303.15 K, 120000 kPa	1794.5	–
303.15 K, 130000 kPa	1804.2	–
303.15 K, 140000 kPa	1813.4	–
313.15 K, 100 kPa	1588.6	616.7
313.15 K, 10000 kPa	1616.6	–
313.15 K, 20000 kPa	1640.2	732.2
313.15 K, 30000 kPa	1660.7	–
313.15 K, 40000 kPa	1678.9	822
313.15 K, 50000 kPa	1695.4	–
313.15 K, 60000 kPa	1710.5	897.4
313.15 K, 70000 kPa	1724.6	–
313.15 K, 80000 kPa	1737.1	963
313.15 K, 90000 kPa	1749.7	–
313.15 K, 100000 kPa	1761.2	1021.7
313.15 K, 110000 kPa	1772.2	–
313.15 K, 120000 kPa	1782.5	–
313.15 K, 130000 kPa	1792.5	–
313.15 K, 140000 kPa	1802	–
323.15 K, 100 kPa	1567.3	588.4
323.15 K, 10000 kPa	1597.6	–
323.15 K, 20000 kPa	1622.7	709.6
323.15 K, 30000 kPa	1644.3	–
323.15 K, 40000 kPa	1663.4	802.1
323.15 K, 50000 kPa	1680.6	–
323.15 K, 60000 kPa	1696.4	878.6
323.15 K, 70000 kPa	1710.9	–
323.15 K, 80000 kPa	1724.2	945.6
323.15 K, 90000 kPa	1736.8	–
323.15 K, 100000 kPa	1748.7	1004.9
323.15 K, 110000 kPa	1760	–
323.15 K, 120000 kPa	1770.6	–
323.15 K, 130000 kPa	1780.7	–
323.15 K, 140000 kPa	1790.5	–
333.15 K, 100 kPa	1545.6	561.4
333.15 K, 10000 kPa	1578.4	–
333.15 K, 20000 kPa	1605.3	688.4
333.15 K, 30000 kPa	1628.1	–
333.15 K, 40000 kPa	1648.2	783.3
333.15 K, 50000 kPa	1666.2	–
333.15 K, 60000 kPa	1682.6	861.5
333.15 K, 70000 kPa	1697.7	–
333.15 K, 80000 kPa	1711.6	929.1
333.15 K, 90000 kPa	1724.6	–
333.15 K, 100000 kPa	1736.9	989.3
333.15 K, 110000 kPa	1748.2	–
333.15 K, 120000 kPa	1759.3	–
333.15 K, 130000 kPa	1769.7	–
333.15 K, 140000 kPa	1779.5	–
343.15 K, 100 kPa	1523.6	534.8
343.15 K, 10000 kPa	1559.1	–
343.15 K, 20000 kPa	1587.8	667.7
343.15 K, 30000 kPa	1611.9	–
343.15 K, 40000 kPa	1633	765
343.15 K, 50000 kPa	1651.7	–
343.15 K, 60000 kPa	1668.7	844.9
343.15 K, 70000 kPa	1684.2	–
343.15 K, 80000 kPa	1698.6	913.5
343.15 K, 90000 kPa	1712	–
343.15 K, 100000 kPa	1724.4	974
343.15 K, 110000 kPa	1736.5	–
343.15 K, 120000 kPa	1747.8	–
343.15 K, 130000 kPa	1758.4	–
343.15 K, 140000 kPa	1768.6	–
353.15 K, 100 kPa	1501.6	509
353.15 K, 10000 kPa	1540	–
353.15 K, 20000 kPa	1570.5	647.6
353.15 K, 30000 kPa	1596	–
353.15 K, 40000 kPa	1618	747.5
353.15 K, 50000 kPa	1637.6	–
353.15 K, 60000 kPa	1655.2	828.9
353.15 K, 70000 kPa	1671.3	–
353.15 K, 80000 kPa	1686.2	898.5
353.15 K, 90000 kPa	1700	–
353.15 K, 100000 kPa	1712.9	960.3
353.15 K, 110000 kPa	1724.9	–
353.15 K, 120000 kPa	1736.6	–
353.15 K, 130000 kPa	1747.4	–
353.15 K, 140000 kPa	1757.8	–
363.15 K, 100 kPa	1478.1	–
363.15 K, 10000 kPa	1520.4	–
363.15 K, 20000 kPa	1553	–
363.15 K, 30000 kPa	1579.9	–
363.15 K, 40000 kPa	1603	–
363.15 K, 50000 kPa	1623.4	–
363.15 K, 60000 kPa	1641.7	–
363.15 K, 70000 kPa	1658.3	–
363.15 K, 80000 kPa	1673.6	–
363.15 K, 90000 kPa	1687.9	–
363.15 K, 100000 kPa	1701.2	–
363.15 K, 110000 kPa	1713.7	–
363.15 K, 120000 kPa	1725.3	–
363.15 K, 130000 kPa	1736.6	–
363.15 K, 140000 kPa	1747.3	–
373.15 K, 100 kPa	1454.4	–
373.15 K, 10000 kPa	1500.9	–
373.15 K, 20000 kPa	1535.8	–
373.15 K, 30000 kPa	1564.2	–
373.15 K, 40000 kPa	1588.4	–
373.15 K, 50000 kPa	1609.6	–
373.15 K, 60000 kPa	1628.5	–
373.15 K, 70000 kPa	1645.8	–
373.15 K, 80000 kPa	1661.7	–
373.15 K, 90000 kPa	1676.4	–
373.15 K, 100000 kPa	1689.9	–
373.15 K, 110000 kPa	1702.8	–
373.15 K, 120000 kPa	1714.7	–
373.15 K, 130000 kPa	1726.2	–
373.15 K, 140000 kPa	1737.1	–
383.15 K, 100 kPa	1430.4	–
383.15 K, 10000 kPa	1481.2	–
383.15 K, 20000 kPa	1518.4	–
383.15 K, 30000 kPa	1548.4	–
383.15 K, 40000 kPa	1573.8	–
383.15 K, 50000 kPa	1595.9	–
383.15 K, 60000 kPa	1615.5	–
383.15 K, 70000 kPa	1633.3	–
383.15 K, 80000 kPa	1649.6	–
383.15 K, 90000 kPa	1664.6	–
383.15 K, 100000 kPa	1678.5	–
383.15 K, 110000 kPa	1691.6	–
383.15 K, 120000 kPa	1704	–
383.15 K, 130000 kPa	1715.7	–
383.15 K, 140000 kPa	1726.8	–
393.15 K, 100 kPa	1405.6	–
393.15 K, 10000 kPa	1461.3	–
393.15 K, 20000 kPa	1500.9	–
393.15 K, 30000 kPa	1532.5	–
393.15 K, 40000 kPa	1559	–
393.15 K, 50000 kPa	1581.9	–
393.15 K, 60000 kPa	1602.2	–
393.15 K, 70000 kPa	1620.6	–
393.15 K, 80000 kPa	1637.1	–
393.15 K, 90000 kPa	1652.8	–
393.15 K, 100000 kPa	1667.1	–
393.15 K, 110000 kPa	1680.5	–
393.15 K, 120000 kPa	1693.2	–
393.15 K, 130000 kPa	1705.1	–
393.15 K, 140000 kPa	1716.3	–
